What was measured:
Type in all cases: in vivo
[1] = tested on: soybean (Glycine max Merr.); test: Test Example 2: soil application on the day after sowing, growth inhibition rate on 14th day; conditions: active ingredient amount 31 g/ha, 14th day after application
Method in brief: (§1)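 Growth inhibition (%) judged by eye at day 14, scale 0 = as untreated to 100 = complete kill. Compounds formulated as wettable powders or emulsifiable concentrates, diluted in 1,000 L water per ha and sprayed onto pot soil one day post-sowing at set active-ingredient rates.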

[2] = tested on: crabgrass (Digitaris sanquinalis L.); test: as above; conditions: active ingredient amount 31 g/ha, 14th day after application
Method in brief: as §1

[3] = tested on: velvetleaf (Abutilon theophrasti MEDIC.); test: as above; conditions: active ingredient amount 31 g/ha, 14th day after application
Method in brief: as §1

corn (Zea mays L.) [4] = test: as above; conditions: active ingredient amount 31 g/ha, 14th day after application
Method in brief: as §1

[5] = tested on: green foxtail (Setaria viridis L.); test: as above; conditions: active ingredient amount 31 g/ha, 14th day after application
Method in brief: as §1

rice (Oryza sativa L.) [6] = test: as above; conditions: active ingredient amount 31 g/ha, 14th day after application
Method in brief: as §1

[7] = tested on: wheat (Triticum aestivum L.); test: as above; conditions: active ingredient amount 31 g/ha, 14th day after application
Method in brief: as §1

[8] = tested on: prickly sida (Sida spinosa L.); test: as above; conditions: active ingredient amount 31 g/ha, 14th day after application
Method in brief: as §1

[9] = tested on: barnyardgrass (Echinochloa crus-qalli L.); test: as above; conditions: active ingredient amount 31 g/ha, 14th day after application
Method in brief: as §1

[10] = tested on: redroot pigweed (Amaranthus retroflexus L.); test: as above; conditions: active ingredient amount 31 g/ha, 14th day after application
Method in brief: as §1

[11] = tested on: soybean (Glycine max Merr.); test: Test Example 1: foliar treatment, growth inhibition rate on 14th day; conditions: active ingredient amount 31 g/ha, 14th day after application, visual, 0 = non-treated, 100 = complete kill
Method in brief: (§2)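 Inhibition was rated visually 14 days after treatment on a 0–100% scale, where 100 is complete kill. Compounds, formulated as wettable powders or emulsifiable concentrates at set active-ingredient amounts, were diluted to 1,000 L/ha with 0.1 vol% spreader. The dilutions were sprayed post-emergence onto soybean (primary leaf), rice (0.2–2.7 leaf), wild oat (0.4–1.2) and green foxtail (0.5–3.2).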

corn (Zea mays L.) [12] = test: as above; conditions: active ingredient amount 31 g/ha, 14th day after application, visual, 0 = non-treated, 100 = complete kill
Method in brief: (§3)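 Visual 0–100% inhibition scoring (100 = complete kill) at 14 days after foliar treatment of soil-grown seedlings at species-specific leaf stages, with the compound sprayed as a wettable powder or emulsifiable concentrate dilution.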

[13] = tested on: green foxtail (Setaria viridis L.); test: as above; conditions: active ingredient amount 31 g/ha, 14th day after application, visual, 0 = non-treated, 100 = complete kill
Method in brief: as §2

[14] = tested on: crabgrass (Digitaria sanquinalis L.); test: as above; conditions: active ingredient amount 31 g/ha, 14th day after application, visual, 0 = non-treated, 100 = complete kill
Method in brief: as §3

rice (Oryza sativa L.) [15] = test: as above; conditions: active ingredient amount 31 g/ha, 14th day after application, visual, 0 = non-treated, 100 = complete kill
Method in brief: as §2

[16] = tested on: wheat (Triticum aestivum L.); test: as above; conditions: active ingredient amount 31 g/ha, 14th day after application, visual, 0 = non-treated, 100 = complete kill
Method in brief: as §3

[17] = tested on: wild oat (Avena fatua L.); test: as above; conditions: active ingredient amount 31 g/ha, 14th day after application, visual, 0 = non-treated, 100 = complete kill
Method in brief: as §2

[18] = tested on: italian ryegrass (Lolium multiflorum Lam.); test: as above; conditions: active ingredient amount 31 g/ha, 14th day after application, visual, 0 = non-treated, 100 = complete kill
Method in brief: as §3

[19] = tested on: barnyardgrass (Echinochloa crus-qalli L.); test: as above; conditions: active ingredient amount 31 g/ha, 14th day after application, visual, 0 = non-treated, 100 = complete kill
Method in brief: as §3

[20] = tested on: redroot pigweed (Amaranthus retroflexus L.); test: as above; conditions: active ingredient amount 31 g/ha, 14th day after application, visual, 0 = non-treated, 100 = complete kill
Method in brief: as §3

## CCn1nc(C)c(OC(C)=O)c(-c2cc(Oc3cnc4cc(Cl)ccc4n3)ccc2C)c1=O [Compound 3-97]
[1]
  Growth inhibition rate (%) Soybean: 0%
[2]
  Growth inhibition rate (%) Crabgrass: 93%
[3]
  Growth inhibition rate (%) Velvetleaf: 0%
Corn (Zea mays L.) [4]
  Growth inhibition rate (%) Corn: 0%
[5]
  Growth inhibition rate (%) Green foxtail: 99%
Rice (Oryza sativa L.) [6]
  Growth inhibition rate (%) Rice: 20%
[7]
  Growth inhibition rate (%) Wheat: 20%
[8]
  Growth inhibition rate (%) Prickly sida: 0%
[9]
  Growth inhibition rate (%) Barnyardgrass: 95%
[10]
  Growth inhibition rate (%) Redroot pigweed: 0%
[11]
  Growth inhibition rate (%) Soybean: 0%
Corn (Zea mays L.) [12]
  Growth inhibition rate (%) Corn: 15%
[13]
  Growth inhibition rate (%) Green foxtail: 100%
[14]
  Growth inhibition rate (%) Crabgrass: 100%
Rice (Oryza sativa L.) [15]
  Growth inhibition rate (%) Rice: 75%
[16]
  Growth inhibition rate (%) Wheat: 95%
[17]
  Growth inhibition rate (%) Wild oat: 100%
[18]
  Growth inhibition rate (%) Italian ryegrass: 99%
[19]
  Growth inhibition rate (%) Barnyardgrass: 100%
[20]
  Growth inhibition rate (%) Redroot pigweed: 0%
